Laboratory results: ChEMBL document CHEMBL1201862, “PubChem BioAssay data set” (2004)
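Assay format: 96-well plates, 48-hour exposure. Abbreviation: GI50, concentration required for 50% inhibition of growth.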 Activity calls are given as the source filed them. No stated cut-off is given here; in the data, active = GI50 up to about 1.1 µM and inactive = higher.

Tests used:
Assay in all cases: NCI-60 cell line screen, 48 h
[1] = test system: SW-620
[2] = test system: SNB-19
[3] = test system: SF-295
[4] = test system: MDA-MB-435
[5] = test system: SK-MEL-5
[6] = test system: PC-3
[7] = test system: NCI-H226
[8] = test system: NCI/ADR-RES
[9] = test system: OVCAR-3
[10] = test system: KM12
[11] = test system: NCI-H460
[12] = test system: OVCAR-4
[13] = test system: BT-549
[14] = test system: SN12C
[15] = test system: SF-268
[16] = test system: MDA-MB-231
[17] = test system: ACHN
[18] = test system: A498
[19] = test system: TK-10
[20] = test system: OVCAR-8
[21] = test system: DU-145
[22] = test system: MCF7
[23] = test system: SNB-75
[24] = test system: MDA-N
[25] = test system: UACC-257
[26] = test system: HCC 2998
[27] = test system: HOP-92
[28] = test system: T47D
[29] = test system: SK-MEL-2
[30] = test system: SK-OV-3
[31] = test system: CCRF-CEM
[32] = test system: SR
[33] = test system: Hs-578T
[34] = test system: 786-0
[35] = test system: RXF 393
[36] = test system: COLO 205
[37] = test system: RPMI-8226
[38] = test system: Malme-3M
[39] = test system: SF-539
[40] = test system: A549
[41] = test system: IGROV-1
[42] = test system: HCT-15
[43] = test system: SK-MEL-28
[44] = test system: MOLT-4
[45] = test system: UO-31
[46] = test system: LOX IMVI
[47] = test system: U-251
[48] = test system: UACC-62
[49] = test system: K562
[50] = test system: HT-29
[51] = test system: NCI-H522
[52] = test system: CAKI-1
[53] = test system: EKVX
[54] = test system: NCI-H23
[55] = test system: HL-60
[56] = test system: HCT-116
[57] = test system: M14
[58] = test system: HOP-62
[59] = test system: OVCAR-5

`CC1OC(OCC2OC(Oc3ccc(C4CC(=O)c5c(O)cc(O)cc5O4)cc3O)C(O)C(O)C2O)C(O)C(O)C1O` (centres undefined) was tested, and the GI50 [1] was > 100 µM (inactive), the GI50 [2] was > 100 µM (inactive) and the GI50 [3] was > 100 µM (inactive). The GI50 [4] was > 100 µM (inactive), the GI50 [5] was > 100 µM (inactive) and the GI50 [6] was > 100 µM (inactive). The GI50 [7] was > 100 µM (inactive), the GI50 [8] was > 100 µM (inactive) and the GI50 [9] was > 100 µM (inactive). For the same compound, the GI50 [10] was > 100 µM (inactive), the GI50 [11] was > 100 µM (inactive) and the GI50 [12] was > 100 µM (inactive). The GI50 [13] was > 100 µM (inactive), the GI50 [14] was > 100 µM (inactive) and the GI50 [15] was > 100 µM (inactive). The GI50 [16] was > 100 µM (inactive), the GI50 [17] was > 100 µM (inactive) and the GI50 [18] was > 100 µM (inactive). The GI50 [19] was > 100 µM (inactive), the GI50 [20] was > 100 µM (inactive) and the GI50 [21] was > 100 µM (inactive). The GI50 [22] was > 100 µM (inactive), the GI50 [23] was > 100 µM (inactive) and the GI50 [24] was > 100 µM (inactive). For the same compound, the GI50 [25] was > 100 µM (inactive), the GI50 [26] was > 100 µM (inactive) and the GI50 [27] was > 100 µM (inactive). For the same compound, the GI50 [28] was > 100 µM (inactive), the GI50 [29] was > 100 µM (inactive) and the GI50 [30] was > 100 µM (inactive). The GI50 [31] was > 100 µM (inactive), the GI50 [32] was > 100 µM (inactive) and the GI50 [33] was > 100 µM (inactive). The GI50 [34] was > 100 µM (inactive), the GI50 [35] was > 100 µM (inactive) and the GI50 [36] was > 100 µM (inactive). For the same compound, the GI50 [37] was > 100 µM (inactive), the GI50 [38] was > 100 µM (inactive) and the GI50 [39] was > 100 µM (inactive). For the same compound, the GI50 [40] was > 100 µM (inactive), the GI50 [41] was > 100 µM (inactive) and the GI50 [42] was > 100 µM. For the same compound, the GI50 [43] was > 100 µM (inactive), the GI50 [44] was > 100 µM (inactive) and the GI50 [45] was > 100 µM (inactive). The GI50 [46] was > 100 µM (inactive), the GI50 [47] was > 100 µM (inactive) and the GI50 [48] was > 100 µM (inactive). For the same compound, the GI50 [49] was > 100 µM (inactive), the GI50 [50] was > 100 µM (inactive) and the GI50 [51] was > 100 µM (inactive). For the same compound, the GI50 [52] was > 100 µM (inactive), the GI50 [53] was > 100 µM (inactive) and the GI50 [54] was > 100 µM (inactive). For the same compound, the GI50 [55] was > 100 µM (inactive), the GI50 [56] was > 100 µM (inactive) and the GI50 [57] was > 100 µM (inactive). For the same compound, the GI50 [58] was > 100 µM (inactive) and the GI50 [59] was > 100 µM (inactive).
With `CC(=O)OC/C=C(/C=C/CNC1CCCCC1)OC(C)=O` the GI50 [1] was 14 µM (inactive), the GI50 [2] was 24.5 µM (inactive) and the GI50 [3] was 18.1 µM (inactive). For the same compound, the GI50 [4] was 16 µM (inactive), the GI50 [5] was 17.9 µM (inactive) and the GI50 [6] was 17.3 µM (inactive). For the same compound, the GI50 [7] was 25.9 µM (inactive), the GI50 [8] was 19.6 µM (inactive) and the GI50 [9] was 17.4 µM (inactive). For the same compound, the GI50 [10] was 15.5 µM (inactive), the GI50 [11] was 24.1 µM (inactive) and the GI50 [12] was 20.8 µM (inactive). For the same compound, the GI50 [13] was 16.9 µM (inactive), the GI50 [14] was 16.7 µM (inactive) and the GI50 [15] was 17.1 µM (inactive). The GI50 [16] was 14.3 µM (inactive), the GI50 [17] was 16.4 µM (inactive) and the GI50 [18] was 19.8 µM (inactive). The GI50 [19] was 16.6 µM (inactive), the GI50 [20] was > 10 µM (inactive) and the GI50 [21] was 17 µM (inactive). The GI50 [22] was 22 µM (inactive), the GI50 [23] was 31.3 µM (inactive) and the GI50 [24] was 18 µM (inactive). The GI50 [25] was 15.1 µM (inactive), the GI50 [26] was 23.4 µM (inactive) and the GI50 [27] was 12.5 µM (inactive). The GI50 [28] was 7.26 µM (inactive), the GI50 [29] was 19.8 µM (inactive) and the GI50 [30] was 19.6 µM (inactive). For the same compound, the GI50 [31] was 4.34 µM (inactive), the GI50 [32] was 10.7 µM (inactive) and the GI50 [33] was 36.3 µM (inactive). For the same compound, the GI50 [34] was 11.5 µM (inactive), the GI50 [35] was 17.9 µM (inactive) and the GI50 [36] was 13.9 µM (inactive). The GI50 [37] was 4.83 µM (inactive), the GI50 [38] was 14.9 µM (inactive) and the GI50 [39] was 11.6 µM (inactive). For the same compound, the GI50 [40] was 47.8 µM (inactive), the GI50 [41] was 18.6 µM (inactive) and the GI50 [42] was 19.2 µM. The GI50 [43] was 16.8 µM (inactive), the GI50 [44] was 36.2 µM (inactive) and the GI50 [46] was 19.1 µM (inactive). The GI50 [47] was 17.8 µM (inactive), the GI50 [48] was 19.1 µM (inactive) and the GI50 [49] was 12.9 µM (inactive). For the same compound, the GI50 [50] was 18.6 µM (inactive), the GI50 [51] was 21.4 µM (inactive) and the GI50 [52] was 13.8 µM (inactive). For the same compound, the GI50 [53] was 16.5 µM (inactive), the GI50 [54] was 16.3 µM (inactive) and the GI50 [55] was > 10 µM (inactive). The GI50 [56] was 14.9 µM (inactive), the GI50 [57] was 8.28 µM (inactive) and the GI50 [58] was 16.5 µM (inactive). For the same compound, the GI50 [59] was 16.3 µM (inactive).
`Clc1ccc(COC(Cn2ccnc2)c2ccc(Cl)cc2Cl)cc1` (centres undefined) [ECONAZOLE] was tested, and the GI50 [1] was 12.1 µM (inactive), the GI50 [2] was 14.3 µM (inactive) and the GI50 [3] was 10.8 µM (inactive). For the same compound, the GI50 [4] was 11.8 µM (inactive), the GI50 [6] was 10.8 µM (inactive) and the GI50 [8] was 4.44 µM (inactive). The GI50 [9] was 10.9 µM (inactive), the GI50 [10] was 14 µM (inactive) and the GI50 [11] was 11.9 µM (inactive). For the same compound, the GI50 [12] was 11.8 µM (inactive), the GI50 [13] was 18.9 µM (inactive) and the GI50 [14] was 12.5 µM (inactive). The GI50 [15] was 14.3 µM (inactive), the GI50 [16] was 13.3 µM (inactive) and the GI50 [17] was 15.5 µM (inactive). The GI50 [18] was 14.2 µM (inactive), the GI50 [19] was 14 µM (inactive) and the GI50 [20] was 11.4 µM (inactive). For the same compound, the GI50 [21] was 16.5 µM (inactive), the GI50 [22] was 12.4 µM (inactive) and the GI50 [23] was 13.7 µM (inactive). For the same compound, the GI50 [24] was 14.1 µM (inactive), the GI50 [25] was 13.1 µM (inactive) and the GI50 [26] was 14.6 µM (inactive). The GI50 [27] was 10.6 µM (inactive), the GI50 [28] was 6.9 µM (inactive) and the GI50 [29] was 14.8 µM (inactive). For the same compound, the GI50 [30] was 13.8 µM (inactive), the GI50 [31] was 8.49 µM (inactive) and the GI50 [32] was 5.32 µM (inactive). The GI50 [33] was 17 µM (inactive), the GI50 [34] was 13.1 µM (inactive) and the GI50 [35] was 14.9 µM (inactive). The GI50 [36] was 11.5 µM (inactive), the GI50 [37] was 8.26 µM (inactive) and the GI50 [38] was 12.3 µM (inactive). For the same compound, the GI50 [39] was 18.8 µM (inactive), the GI50 [40] was 11.2 µM (inactive) and the GI50 [41] was 11.9 µM (inactive). The GI50 [42] was 12.7 µM, the GI50 [43] was 17.2 µM (inactive) and the GI50 [44] was 2.99 µM (inactive). The GI50 [45] was 4.13 µM (inactive), the GI50 [46] was 6.98 µM (inactive) and the GI50 [47] was 13.2 µM (inactive). For the same compound, the GI50 [48] was 12.1 µM (inactive), the GI50 [49] was 4.76 µM (inactive) and the GI50 [50] was 8.69 µM (inactive). The GI50 [51] was 4.57 µM (inactive), the GI50 [52] was 11.6 µM (inactive) and the GI50 [53] was 11.8 µM (inactive). For the same compound, the GI50 [54] was 13.1 µM (inactive), the GI50 [55] was 6.87 µM (inactive) and the GI50 [56] was 8.71 µM (inactive). For the same compound, the GI50 [57] was 15 µM (inactive), the GI50 [58] was 12.9 µM (inactive) and the GI50 [59] was 11.5 µM (inactive).
